Laboratory results: paper PMC10487708, “Chlorin E6-Curcumin-Mediated Photodynamic Therapy Promotes an Anti-Photoaging Effect in UVB-Irradiated Fibroblasts” (International Journal of Molecular Sciences, 2023)
Where “and” joins values, the source holds several entries; their conditions need not be identical. Identical values can stand only once. Like-named read-outs stand apart in the source and are kept apart here.

Key:
[1] = ABTS radical scavenging activity; type: biochemical
Description: […] in 2.5 mM potassium persulfate for more than 16 h to develop 7 mM 2,2′-azinobis-(3-ethylbenzothiazoline-6-sulfonic acid diammonium salt) (ABTS), and ethanol was diluted to obtain an absorbance of 0.3 at 620 nm. Each composite sample was diluted by concentration, and 100 μL of the sample was put into each well along with 50 μL each of ABTS reagent and solvent; reacted at room temperature for 10 min, and absorbance was measured at 620 nm. ABTS activity inhibition (%) = 100 − [test group-blank]/(control group-blank) × 100]

[2] = ORAC (oxygen radical absorbance capacity) assay; type: biochemical; conditions: Trolox equivalent
Description: The ORAC assay is based on the scavenging of peroxyl radicals generated by 2,2′-azobis(2-methylpropioamidine) dihydrochloride (AAPH), which prevents the degradation of the fluorescein probe. The ORAC values were calculated as the area under the curve (AUC) and expressed as µM of Trolox equivalent (TE).

[3] = tested on: Hs68 cells; experiment: MTT cell viability of Hs68 cells with or without LED light; type: cell-based, human; conditions: for IC50: Homo sapiens, light or radiation study, Hs68 cells
Description: Data were represented as mean ± SD from at least three independent experiments and analyzed by one-way ANOVA with Tukey’s post hoc test, * p < 0.01, compared with vehicle-treated control.
Hs68 and BALB/c 3T3 cell viability was measured using a 3-[4,5-dimethylthylthiazol-2-yl]-2,5 diphenyl tetrazolium bromide (MTT) assay. The cells were cultured in 24-well plates at a density of 3 × 10^4 cells per well or BALB/c 3T3 cells at a density of 1 × 10^4 cells per well. […] The Hs68 cells were then exposed to LED light (660 nm; 89 W/m^2; 20 J/cm^2) for 37 min 27 s and incubated for 3 h. […] The cells were washed and treated with MTT, after which the plates were incubated at 37 °C in the dark for 2 h. After the formation of formazan, 100 µL of DMSO was added, and the absorbance was measured at 570 nm using a microtiter plate reader (Thermo-scientific, Skanlt software 5.0, Waltham, MA, USA)

[4] = dark, read-out: Dark Condition (EC50, μM) ABTS radical scavenging

EC50 [1, 4]	EC50 ([1]; LED light, read-out: LED Condition (EC50, μM) ABTS radical scavenging)	Structure (SMILES)	ORAC Dark Condition (TE, μM) ([2]; 1 μM compound)	ORAC Dark Condition (TE, μM) ([2]; 10 μM compound)	ORAC LED Condition (TE, μM) ([2]; LED 20 J/cm^2, 1 μM compound) [µM]	ORAC LED Condition (TE, μM) ([2]; LED 20 J/cm^2, 10 μM compound) [µM]	IC50 ([3]; LED 660 nm 20 J/cm^2, MTT, read-out: Phototoxicity (IC50)) [µM]	IC50 ([3]; without LED irradiation, MTT, read-out: Dark Toxicity (IC50)) [µM]	cytotoxicity for Hs68 cells ([3]; dark, up to 1000 nM)
60.3 ± 9.51 µM	–	NCC(=O)CCC(=O)O [5-ALA, 5-Aminolevulinic acid, reference compound]	undetectable	undetectable	–	–	–	–	–
~13.6 µM and 13.6 µM	~19.8 µM and 19.8 µM	C=Cc1c(C)c2cc3nc(c(CC(=O)O)c4[nH]c(cc5nc(cc1[nH]2)C(C)=C5CC)c(C)c4C(=O)O)[C@@H](CCC(=O)O)[C@@H]3C [Ce6, Chlorin e6]	18.5 µM	47.72 µM	22.11	53.85	0.615	≥ 1	almost no cytotoxicity
